Source: US11034952B2, “Aptamer methods and compositions” (The Trustees of Columbia University in the City of New York, priority 2013, dated 2021)

Columns and labels:
[1] = read-out: Kd for glucose; cited from earlier work
[2] = oral phenylalanine load, Phe concentration in serum from capillary blood detected by aptamer; type: in vivo; settings: 100 mg per kg body weight by mouth, 1 hr, FIG. 11B
Description: FIG. 11A-FIG. 11B is a chemical structure of PACp*Rh01 aptamer (SEQ ID NO: 53) reactive for Phe and cross-reactive for Trp and a scatter and line plot showing use thereof. FIG. 11A depicts the structure of an aptamer reactive for Phe and cross-reactive for Trp. FIG. 11B is a scatter and line plot showing aptamer detected Phe concentration (μM) as a function of time (hr) in serum samples from capillary blood of subject two and subject three having an oral load of 100 mg/kg at time zero.
This aptamer was used to detected Phe concentration (μM) as a function of time (hr) in serum samples from capillary blood of subject one and subject three that took 100 mg of phenylanine per kg body weight by mouth at time zero (see e.g., FIG. 11B). […] Every hour, blood was measured for the phenylalanine concentration. In a healthy subject, the enzymes that break down phenylalanine (e.g., phenylalanine hydroxylase (PAH) or BH4-cofactor, alone or together) are stimulated and break down phenylalanine resulting in decreased concentration (see 2-5 hr in FIG. 11B).

[3] = tested on: phenylalanine complexed with Cu(II); assay: amino acid selectivity of Cu(II) phenylalanine aptamers (RFU vs amino acid concentration); type: binding; settings: for amino acid selectivity: Cu(II)
Description: (§1) FIG. 12A-FIG. 12D is a series of aptamer structures and scatter and line plots showing use thereof.
This aptamer sensor mixture (not including Cp*Rh) was incubated with concentrations of amino acids (Phe, Tyr, Trp, Gly) and fluorescence (RFU) measured (see e.g., FIG. 12B).

[4] = tested on: amino acid complexed with Cp*Rh(III); assay: amino acid selectivity of Cp*Rh(III)-amino acid binding aptamers in sensor form; settings: Cp*Rh(III) derivatization agent
Text: A series of aptamers were formed having an unbound nucleic acid pocket (see e.g., FIG. 7B-G).
An exemplary motif having a plurality of unpaired bases forming a pocket that binds a metal complex or an amino acid target molecule is shown in FIG. 8A. […]

[5] = amino acid selectivity of HPheA104 aptamer sensor (RFU vs amino acid concentration); type: binding
Description: as §1
This aptamer sensor mixture (not including Cp*Rh) was incubated with concentrations of amino acids (Phe, Trp, Tyr) and fluorescence (RFU) measured (see e.g., FIG. 12D).

Molecule | amino acid selectivity [4] | also measured
CN(Cc1ccccc1B(O)O)Cc1c2ccccc2c(CN(C)Cc2ccccc2B(O)O)c2ccccc12 [bis-boronic receptor] |  | Kd [1]: ~500 µM
N[C@@H](Cc1ccccc1)C(=O)O [phenylalanine] |  | phenylalanine concentration in blood [2]: rises significantly
CTCTCGGGACGACAGGTCCCTTTCGTAGATCGAGGAAGTATGTCGTCCC (listed as DNA, chemistry not fully specified) [Cu(II)-Phe10_49 nt, phenylalanine-Cu(II) complex aptamer] |  | amino acid selectivity [3]: Phe cross-reactive Trp
CTCTCGGGACGACCGCGGTAGTCTTAACCTAAAGCGGTGTCAGGTCGTCCC (listed as DNA, chemistry not fully specified) [HTrp03, tryptophan-Cp*Rh(III) complex aptamer] | Trp selective | 
CTCTCGGGACGACCGCGTTTCCCAAGAAAGCAAGTTTTGGTTGGTCGTCCC (aptamer; listed as DNA, chemistry not fully specified) [HPheA104] |  | amino acid selectivity [5]: Phe reactive; specificity among phenylalanine, tryptophan, tyrosine ([5]; sensor mixture not including Cp*Rh, FIG. 12D): Phe specificity is demonstrated
CTCTCGGGACGACGACACGGGCGTCCCTTCACAAGGAGAGTGAGTCGTCCC (listed as DNA, chemistry not fully specified) [ARG01_Cp, arginine-Cp*Rh(III) complex aptamer] | Arg selective | 
CTCTCGGGACGACGAGGCTGGATGCATTCGCCGGATGTTCGATGTCGTCCC (listed as DNA, chemistry not fully specified) [Cu(II)_Phe01, phenylalanine-Cu(II) complex aptamer] |  | amino acid selectivity [3]: Phe reactive; specificity among phenylalanine, tyrosine, tryptophan, glycine ([3]; sensor mixture not including Cp*Rh, FIG. 12B): Phe specificity is demonstrated
CTCTCGGGACGACGCGGTGTGGATCCCTCGTAGAAGGAGTAGTGTCGTCCC (aptamer; listed as DNA, chemistry not fully specified) [LysCp05, lysine-Cp*Rh(III) complex aptamer] | Lys selective | 
CTCTCGGGACGACGGACGCTAATCTTACAAGGGCGTAGTGTATGTCGTCCC (listed as DNA, chemistry not fully specified) [PACp*Rh01, phenylalanine-Cp*Rh(III) complex aptamer] | Phe cross-reactive Trp | 
CTCTCGGGACGACGGCCCGATCTCAGAGTAGTCGTCCC (listed as DNA, chemistry not fully specified) [Tyr-Cp*Rh(38nt), tyrosine-Cp*Rh(III) complex aptamer] | Tyr selective | 
CTCTCGGGACGACGGCGGGCGCGTATGTATATCATAAGGTGTAGTCGTCCC (aptamer; listed as DNA, chemistry not fully specified) [LeuCp17, leucine-Cp*Rh(III) complex aptamer] | selective for Leu over Ile | 
CTCTCGGGACGACGGCGGGGAAACAGCTGCAAAATGTGGAGTAGTCGTCCC (Cp*Rh(III)-citrulline complex, further chemistry not given here) [CIT30N02_Cp*Rh, citrulline-Cp*Rh(III) complex aptamer] | citrulline non-selective | 
CTCTCGGGACGACGGCGGGTGAATGCACACTTAGCAGAGAGTAGTCGTCCC (aptamer; listed as DNA, chemistry not fully specified) [GlutaCp02, glutamine-Cp*Rh(III) complex aptamer] | Gln selective | 
CTCTCGGGACGACGGGCCACGTTTTCCAGGTACTTTCTAAGGGGTCGTCCC (aptamer; listed as DNA, chemistry not fully specified) [AspaCp03, asparagine-Cp*Rh(III) complex aptamer] | Asn selective | 
CTCTCGGGACGACGGGCTAGGCGTGGGTGTAAAGGCACAGGGGTCGTCCC (listed as DNA, chemistry not fully specified) [Gly-Cp sensor, glycine-Cp*Rh(III) complex aptamer] | Gly selective | 
CTCTCGGGACGACGGGTCAGTTAGACCGTGAGGCTTCCGAATAGTCGTCCC (aptamer; listed as DNA, chemistry not fully specified) [GLYHW-Cp*Rh06, glycine-Cp*Rh(III) complex aptamer] | Gly non-specific | 
CTCTCGGGACGACGGGTGGGAGCGATTCGAGCTACTCAGGTATGTCGTCCC (aptamer; listed as DNA, chemistry not fully specified) [LysCp*Rh18, lysine-Cp*Rh(III) complex aptamer] | Lys non-selective | 
